Experimental findings from ChEMBL document CHEMBL1123903, “Synthesis and antimalarial effects of 4-[(7-chloro-4-quinolinyl)amino]-2-[(diethylamino)methyl] -6-alkylphenols and their N omega-oxides” (1987) are described below.

What all share (assay type): functional
In assay [1] the test system is Plasmodium berghei. Description: Change in mean survival time of trophozoite-induced Plasmodium berghei infection after 20 mg/kg subcutaneous dose.
Assay [2] has as its system Mus musculus. In words: Number of deaths when administered as a single dose of 640 mg/kg (sc) 72-h postinfection in mice.
Assay [3] deals with Plasmodium berghei. Description: Change in mean survival time of trophozoite-induced Plasmodium berghei infection after 160 mg/kg subcutaneous dose.
Assay [4] concerns Plasmodium berghei. Description: Change in mean survival time of trophozoite-induced Plasmodium berghei infection after 40 mg/kg subcutaneous dose.
In assay [5] the test system is Mus musculus. In words: Number of deaths when administered as a single dose of 320 mg/kg (sc) 72-h postinfection in mice.
In assay [6] the test system is Plasmodium berghei. In words: Change in mean survival time of trophozoite-induced Plasmodium berghei infection after 80 mg/kg subcutaneous dose.

`CCN(CC)Cc1cc(Nc2cc[n+]([O-])c3cc(Cl)ccc23)cc(Cc2ccccc2)c1O`: the “Delta MST” value with Plasmodium berghei [1] came to 0.4 days; with Plasmodium berghei [3], 5.4 days; with Plasmodium berghei [4], 2 days; in the assay with Plasmodium berghei [6], 4.2 days. Moreover, the Deaths in the assay on Mus musculus [2] and with Mus musculus [5] was 14 each time.
